In patent EP4729522A1, “CRYSTAL FORMS OF SODIUM SALT OF POLYCYCLIC CARBAMOYLPYRIDONE DERIVATIVE, AND PREPARATION METHOD THEREFOR AND USE THEREOF” (Jiangsu Aidea Pharmaceutical Group Co., Ltd., priority 2023, dated 2024):
“Also recorded” adds a separate entry of the source. Where a name gives a salt, the structure may show the parent alone.

Key:
Assay type in all cases: physicochemical
[1] = Hygroscopicity by Dynamic Vapor Sorption (DVS)
Method: [table] […] The sample, after DVS testing, was then analyzed by XRPD. Table 8 DVS test results of sodium salts

[2] = Simulated granulation test (ethanol wetting and grinding, XRPD); settings: wetted with ethanol, then ground
Method: The resulting solid and the sample without the addition of wetting ethanol were analyzed by XRPD, respectively.

[3] = High pressure property test (XRPD after pressing); settings: pressed at 10 MPa for 5 minutes, 13 mm die
[4] = Influencing factors stability test (high temperature, high humidity, lighting; XRPD, HPLC, appearance); settings: for Purity: HPLC
Method: The petri dishes were then transferred into constant temperature and humidity chambers under three different conditions: high temperature (60 °C, sealed), high relative humidity (RH: 90 ± 5%, 25 °C, open), and lighting (5000 ± 500 Lux, open). The samples were tested on Day 5 and Day 10.

[5] = Day 5, High humidity (RH 90 ± 5%, 25 °C, open)
[6] = Day 5, High temperature (60 °C, sealed)
[7] = Day 5, Lighting (5000 ± 500 Lux, open)
[8] = Day 10, High humidity (RH 90 ± 5%, 25 °C, open)
[9] = Day 10, High temperature (60 °C, sealed)
[10] = Day 10, Lighting (5000 ± 500 Lux, open)

weight gain at 80% relative humidity (RH) ([1]; DVS, 80% RH, 25°C): 0.69%
Adsorption ([1]; Relative humidity 0%, adsorption (cycle 1 of 2), 25°C): 0.0000%
Adsorption ([1]; Relative humidity 0%, adsorption (cycle 2 of 2), 25°C): -0.0471%
Desorption ([1]; Relative humidity 0%, desorption (cycle 2 of 2), 25°C): -0.0614%
Desorption ([1]; Relative humidity 0%, first desorption (cycle 1 of 2), 25°C): -0.0471%
Adsorption ([1]; Relative humidity 10%, adsorption (cycle 1 of 2), 25°C): 0.0668%
Adsorption ([1]; Relative humidity 10%, adsorption (cycle 2 of 2), 25°C): 0.0230%
Desorption ([1]; Relative humidity 10%, desorption (cycle 2 of 2), 25°C): 0.0147%
Desorption ([1]; Relative humidity 10%, first desorption (cycle 1 of 2), 25°C): 0.0285%
Adsorption ([1]; Relative humidity 20%, adsorption (cycle 1 of 2), 25°C): 0.1197%
Adsorption ([1]; Relative humidity 20%, adsorption (cycle 2 of 2), 25°C): 0.0818%
Desorption ([1]; Relative humidity 20%, desorption (cycle 2 of 2), 25°C): 0.0758%
Desorption ([1]; Relative humidity 20%, first desorption (cycle 1 of 2), 25°C): 0.0891%
Adsorption ([1]; Relative humidity 30%, adsorption (cycle 1 of 2), 25°C): 0.1725%
Adsorption ([1]; Relative humidity 30%, adsorption (cycle 2 of 2), 25°C): 0.1394%
Desorption ([1]; Relative humidity 30%, desorption (cycle 2 of 2), 25°C): 0.1373%
Desorption ([1]; Relative humidity 30%, first desorption (cycle 1 of 2), 25°C): 0.1498%
Adsorption ([1]; Relative humidity 40%, adsorption (cycle 1 of 2), 25°C): 0.2282%
Adsorption ([1]; Relative humidity 40%, adsorption (cycle 2 of 2), 25°C): 0.2001%
Desorption ([1]; Relative humidity 40%, desorption (cycle 2 of 2), 25°C): 0.2149%
Desorption ([1]; Relative humidity 40%, first desorption (cycle 1 of 2), 25°C): 0.2239%
Adsorption ([1]; Relative humidity 50%, adsorption (cycle 1 of 2), 25°C): 0.2857%
Adsorption ([1]; Relative humidity 50%, adsorption (cycle 2 of 2), 25°C): 0.2641%
Desorption ([1]; Relative humidity 50%, desorption (cycle 2 of 2), 25°C): 0.3200%
Desorption ([1]; Relative humidity 50%, first desorption (cycle 1 of 2), 25°C): 0.3320%
Adsorption ([1]; Relative humidity 60%, adsorption (cycle 1 of 2), 25°C): 0.3539%
Adsorption ([1]; Relative humidity 60%, adsorption (cycle 2 of 2), 25°C): 0.3365%
Desorption ([1]; Relative humidity 60%, desorption (cycle 2 of 2), 25°C): 0.5185%
Desorption ([1]; Relative humidity 60%, first desorption (cycle 1 of 2), 25°C): 0.5250%
Adsorption ([1]; Relative humidity 70%, adsorption (cycle 1 of 2), 25°C): 0.5505%
Adsorption ([1]; Relative humidity 70%, adsorption (cycle 2 of 2), 25°C): 0.5627%
Desorption ([1]; Relative humidity 70%, desorption (cycle 2 of 2), 25°C): 0.6037%
Desorption ([1]; Relative humidity 70%, first desorption (cycle 1 of 2), 25°C): 0.6126%
Adsorption ([1]; Relative humidity 80%, adsorption (cycle 1 of 2), 25°C): 0.6895%
Adsorption ([1]; Relative humidity 80%, adsorption (cycle 2 of 2), 25°C): 0.6928%
Desorption ([1]; Relative humidity 80%, desorption (cycle 2 of 2), 25°C): 0.7082%
Desorption ([1]; Relative humidity 80%, first desorption (cycle 1 of 2), 25°C): 0.7176%
Adsorption ([1]; Relative humidity 90%, adsorption (cycle 1 of 2), 25°C): 0.9012%
Adsorption ([1]; Relative humidity 90%, adsorption (cycle 2 of 2), 25°C): 0.8889%
Desorption ([1]; Relative humidity 90%, desorption (cycle 2 of 2), 25°C): 0.8889%
Desorption ([1]; Relative humidity 90%, first desorption (cycle 1 of 2), 25°C): 0.9012%
change in crystal form after ethanol wetting and grinding (XRPD) [2]: did not exhibit a change in crystal form
crystal form after the high-pressure test (XRPD) [3]: did not change
Property ([4]; Day 0): off-white solid
XRPD ([4]; Day 0): Crystal Form A
Purity ([4]; Day 0): 99.57%
Property [4, 5]: off-white solid
XRPD [4, 5]: Crystal Form A
Purity [4, 5]: 99.64%
Property [4, 6]: off-white solid
XRPD [4, 6]: Crystal Form A
Purity [4, 6]: 99.69%
Property [4, 7]: off-white solid
XRPD [4, 7]: Crystal Form A
Purity [4, 7]: 99.68%
Property [4, 8]: off-white solid
XRPD [4, 8]: Crystal Form A
Purity [4, 8]: 99.72%
Property [4, 9]: off-white solid
XRPD [4, 9]: Crystal Form A
Purity [4, 9]: 99.72%
Property [4, 10]: off-white solid
XRPD [4, 10]: Crystal Form A
Purity [4, 10]: 99.72%
SMILES: C[C@H]1N2C(=O)c3c(O)c(=O)c(C(=O)NCc4ccc(F)cc4F)cn3C[C@@H]2OCC12CC2 [Sodium salt crystal form A]
After DVS testing Crystal form change ([1]; XRPD after DVS testing): did not change; also recorded: Crystal form A, unchanged
